≈ marks a conversion by molar mass, not a printed value.
Assays:
Format in all cases: functional
Escherichia coli [1] = experiment: Antimicrobial activity against Escherichia coli ATCC8739 assessed as diameter of growth inhibition zone at 1 mg/ml after 24 hr by agar cup diffusion method; conditions: ATCC8739, 24 h, read-out: IZ
Staphylococcus aureus [2] = experiment: Antimicrobial activity against Staphylococcus aureus ATCC6538P assessed as diameter of growth inhibition zone at 1 mg/ml after 24 hr by agar cup diffusion method; conditions: read-out: IZ
Pseudomonas aeruginosa [3] = experiment: Antimicrobial activity against Pseudomonas aeruginosa ATCC9027 assessed as diameter of growth inhibition zone at 1 mg/ml after 24 hr by agar cup diffusion method; conditions: ATCC9027, 24 h, read-out: IZ
Candida albicans [4] = experiment: Antimicrobial activity against Candida albicans ATCC2091 assessed as diameter of growth inhibition zone at 1 mg/ml after 48 hr by agar cup diffusion method; conditions: ATCC2091, 48 h, read-out: IZ
Pseudomonas aeruginosa [5] = experiment: Antimicrobial activity against Pseudomonas aeruginosa ATCC9027 assessed as growth inhibition after 48 hr by two-fold serial dilution method; conditions: ATCC9027, 48 h
TK-10 = experiment: Growth inhibition of Homo sapiens (human) TK10 cells at 10 uM after 48 hr by SRB assay; conditions: TK-10, 48 h, read-out: GI
SF-295 = experiment: Growth inhibition of Homo sapiens (human) SF295 cells at 10 uM after 48 hr by SRB assay; conditions: SF-295, 48 h, read-out: GI
Escherichia coli [6] = experiment: Antimicrobial activity against Escherichia coli ATCC8739 assessed as growth inhibition after 48 hr by two-fold serial dilution method; conditions: ATCC8739, 48 h
IGROV-1 = experiment: Growth inhibition of Homo sapiens (human) IGROV1 cells at 10 uM after 48 hr by SRB assay; conditions: IGROV-1, 48 h, read-out: GI
SK-MEL-2 = experiment: Growth inhibition of Homo sapiens (human) SK-MEL-2 cells at 10 uM after 48 hr by SRB assay; conditions: SK-MEL-2, 48 h, read-out: GI
Staphylococcus aureus [7] = experiment: Antimicrobial activity against Staphylococcus aureus ATCC6538P assessed as growth inhibition after 48 hr by two-fold serial dilution method
Candida albicans [8] = experiment: Antimicrobial activity against Candida albicans ATCC2091 assessed as growth inhibition after 48 hr by two-fold serial dilution method; conditions: ATCC2091, 48 h

Structure (SMILES)	zone of inhibition at 1000 µg/mL (Escherichia coli [1]) [mm]	zone of inhibition at 1000 µg/mL (Staphylococcus aureus [2]) [mm]	zone of inhibition at 1000 µg/mL (Pseudomonas aeruginosa [3]) [mm]	zone of inhibition at 1000 µg/mL (Candida albicans [4]) [mm]	MIC (Pseudomonas aeruginosa [5]) [µg/mL]	inhibition of growth at 10 µM (TK-10) [%]	inhibition of growth at 10 µM (SF-295) [%]	MIC (Escherichia coli [6]) [µg/mL]	inhibition of growth at 10 µM (IGROV-1) [%]	inhibition of growth at 10 µM (SK-MEL-2) [%]	MIC (Staphylococcus aureus [7]) [µg/mL]	MIC (Candida albicans [8]) [µg/mL]
Cc1c(C(N)=O)sc2nc(C)n(NC(=S)NCc3ccccc3)c(=O)c12	13	12	12	15	–	–	–	–	–	–	–	–
Cc1c(C(N)=O)sc2nc(C)n(/N=c3\scc(-c4ccc(Cl)cc4)n3Cc3ccccc3)c(=O)c12	15	10	17	15	125 (≈ 239 µM)	–	–	–	–	–	–	–
Cc1c(C(N)=O)sc2nc(S(C)(=O)=O)n(-c3ccccc3)c(=O)c12	16	11	12	15	–	–	–	–	–	–	–	–
Cc1c(C(N)=O)sc2ncn(CCO)c(=O)c12	15	10	17	15	125 (≈ 494 µM)	97.1	43.8	–	–	–	–	–
Cc1c(C(N)=O)sc2ncn(C3CCCCC3)c(=O)c12	17	10	12	15	–	–	–	125 (≈ 429 µM)	–	–	–	–
Cc1c(C(N)=O)sc2nc(SCC3CO3)n(-c3ccccc3)c(=O)c12 (stereo not drawn)	15	10	17	15	125 (≈ 335 µM)	–	–	–	–	–	–	–
Cc1c(C(N)=O)sc2nc(S(=O)(=O)Cc3ccccc3)n(-c3ccccc3)c(=O)c12	15	10	12	15	–	–	–	–	–	–	–	–
Cc1c(C(N)=O)sc2nc(SCC(=O)Nc3ccccc3)n(-c3ccccc3)c(=O)c12	15	10	12	15	–	–	–	–	–	–	–	–
CCOC(=O)CSc1nc2sc(C(N)=O)c(C)c2c(=O)n1-c1ccccc1	13	10	12	15	–	–	–	–	–	–	–	–
CCSc1nc2sc(C(N)=O)c(C)c2c(=O)n1-c1ccccc1	16	10	12	15	–	–	–	–	–	–	–	–
Cc1ccc(NC(=O)CSc2nc3sc(C(N)=O)c(C)c3c(=O)n2-c2ccccc2)cc1	15	10	12	15	–	–	–	–	–	–	–	–
Cc1c(C(N)=O)sc2ncn(Cc3ccccc3)c(=O)c12	15	10	16	15	–	–	–	–	–	–	–	–
Cc1c(C(N)=O)sc2nc(C)n(/N=c3\scc(-c4ccc(Br)cc4)n3-c3ccccc3)c(=O)c12	15	10	12	15	–	–	–	–	–	–	–	–
Cc1c(C(N)=O)sc2nc(SCC(=O)Nc3ccc(Cl)cc3)n(-c3ccccc3)c(=O)c12	15	10	12	15	–	47.2	–	–	79.4	116	–	–
Cc1c(C(N)=O)sc2nc(C)n(/N=C3\SCC(=O)N3c3ccccc3)c(=O)c12	15	14	12	16	–	–	–	–	–	–	250 (≈ 605 µM)	–
CCS(=O)(=O)c1nc2sc(C(N)=O)c(C)c2c(=O)n1-c1ccccc1	13	10	12	15	–	–	–	–	–	–	–	–
CSc1nc2sc(C(N)=O)c(C)c2c(=O)n1-c1ccccc1	13	10	12	15	–	–	–	–	–	–	–	–

Structure (SMILES)	zone of inhibition at 1000 µg/mL (Escherichia coli [1]) [mm]	zone of inhibition at 1000 µg/mL (Staphylococcus aureus [2]) [mm]	zone of inhibition at 1000 µg/mL (Pseudomonas aeruginosa [3]) [mm]	zone of inhibition at 1000 µg/mL (Candida albicans [4]) [mm]	MIC (Pseudomonas aeruginosa [5]) [µg/mL]	inhibition of growth at 10 µM (TK-10) [%]	inhibition of growth at 10 µM (SF-295) [%]	MIC (Escherichia coli [6]) [µg/mL]	inhibition of growth at 10 µM (IGROV-1) [%]	inhibition of growth at 10 µM (SK-MEL-2) [%]	MIC (Staphylococcus aureus [7]) [µg/mL]	MIC (Candida albicans [8]) [µg/mL]
CC1(C)S[C@@H]2[C@H](NC(=O)[C@H](N)c3ccccc3)C(=O)N2[C@H]1C(=O)O [AMPICILLIN]	26	30	18	–	125 (≈ 358 µM)	–	–	7.81 (≈ 22.4 µM)	–	–	3.91 (≈ 11.2 µM)	–
Cc1c(C(N)=O)sc2nc(S)n(-c3ccccc3)c(=O)c12	15	12	12	15	–	–	–	–	–	–	–	–
Cc1c(C(N)=O)sc2nc(C)n(NC(=S)Nc3ccccc3)c(=O)c12	15	10	12	15	–	–	–	–	–	–	–	–
CCCn1cnc2sc(C(N)=O)c(C)c2c1=O	17	10	12	15	–	–	–	125 (≈ 497 µM)	–	–	–	–
Cc1c(C(N)=O)sc2ncn(-c3ccccn3)c(=O)c12	13	10	12	15	–	–	–	–	–	–	–	–
CC(=O)CSc1nc2sc(C(N)=O)c(C)c2c(=O)n1-c1ccccc1	15	13	12	15	–	–	–	–	–	–	250 (≈ 669 µM)	–
Cc1c(C(N)=O)sc2nc(SCc3ccccc3)n(-c3ccccc3)c(=O)c12	15	10	12	15	–	–	–	–	–	–	–	–
Cc1c(C(N)=O)sc2nc(SCC(O)CN3CCCCC3)n(-c3ccccc3)c(=O)c12 (stereo not drawn)	15	10	12	15	–	–	–	–	–	–	–	–
Cc1c(C(N)=O)sc2nc[nH]c(=O)c12	13	10	12	15	–	–	–	–	–	–	–	–
Cc1c(C(N)=O)sc2nc(SCC(O)CN3CCOCC3)n(-c3ccccc3)c(=O)c12 (stereo not drawn)	13	10	12	15	–	–	–	–	–	–	–	–
CCOC(=O)c1c(NC(C)=O)sc(C(N)=O)c1C	16	10	12	15	–	–	–	125 (≈ 462 µM)	–	–	–	–
Clc1ccccc1C(c1ccccc1)(c1ccccc1)n1ccnc1 [CLOTRIMAZOLE]	–	–	–	28	–	–	–	–	–	–	–	7.81 (≈ 22.6 µM)
Cc1c(C(N)=O)sc2nc(C)n(/N=c3\scc(-c4ccc(Cl)cc4)n3-c3ccccc3)c(=O)c12	16	10	12	15	–	–	–	125 (≈ 246 µM)	–	–	–	–
Cc1c(C(N)=O)sc2nc(C)n(/N=C3\SCC(=O)N3Cc3ccccc3)c(=O)c12	15	14	12	16	–	–	–	–	–	–	250 (≈ 585 µM)	–
Cc1c(C(N)=O)sc2nc(C)n(/N=c3\scc(-c4ccc(Br)cc4)n3Cc3ccccc3)c(=O)c12	15	11	12	15	–	–	–	–	–	–	–	–
Cc1c(C(N)=O)sc2nc(C)n(N)c(=O)c12	15	10	17	15	125 (≈ 525 µM)	–	–	–	–	–	–	–

From ChEMBL document CHEMBL3046848, “Synthesis and biological evaluation of novel series of thieno[2,3-d]pyrimidine derivatives as anticancer and antimicrobial agents” (2013)
